Data taken from PMC10900488, “Synthesis and Evaluation of (Bis)benzyltetrahydroisoquinoline Alkaloids as Antiparasitic Agents” (JACS Au, 2024).

Tests used:
[1] = tested on: L. infantum promastigotes; test: Antipromastigote assay (L. infantum), MTT colorimetric; format: cell-based, Leishmania (L.) infantum; conditions: Leishmania infantum; ± SD; MTT, 48 h; read-out: L. infantum IC50 promastigotes
Experimental: (§1) Table 1 depicts the antileishmanial (L. infantum) activity evaluation performed against both the amastigote form (evaluated microscopically using an ex vivo intracellular model of mice macrophages) and the promastigote one (using an MTT colorimetric method).[32],[33] The cytotoxicity was evaluated against NCTC cells using an MTT colorimetric method and the selectivity index was determined using the ratio between the CC50 values (NCTC cells) and the IC50 values (amastigotes).[32] […] With respect to the substituents on the C ring, larger, hydrophobic groups conferred greater bioactivity (e.g., 9b–d), whereas small, hydrophilic groups such as a hydroxyl group afford modest to poor bioactivity.
(§2) Leishmania (L.) infantum (MHOM/BR/1972/LD) amastigotes were obtained from golden hamsters (Mesocricetus auratus) spleens following 60-70 days of infection via differential centrifugation. The Stauber method was used to determine the number of parasites.12 […]
Biological activity assays
Antipromastigote Assay (L. infantum)
L. infantum promastigotes (1 × 10^6 cells/well) were added to a 96-well plates. Treatment of the cells with selected compounds (serially diluted 0.14 to 200 μM) was performed in M199 medium supplemented with 0.25% hemin and 10% fetal bovine serum for 48 h at 24 °C. The MTT colorimetric assay was used to determine the activity (IC50) of the compounds. Miltefosine was used as a standard drug and untreated promastigotes were used as a negative control. The half inhibitory concentration (IC50) was determined from a sigmoidal regression of the concentration-response curves generated in GraphPadPrism7. […]

L. infantum amastigotes = test: Antiamastigote assay (L. infantum), ex vivo intracellular model of mice macrophages, microscopy; format: cell-based, Leishmania (L.) infantum; conditions: Leishmania infantum, Peritoneal macrophage, 96 h, ± SD, intracellular, peritoneal macrophages, read-out: L. infantum IC50 amastigotes
Experimental: as §1, §2
Peritoneal macrophages were obtained via washing the peritoneal cavity of BALB/c mice with 10% foetal calf serum supplemented RPMI-1640 medium (pH 7.2). The macrophages were maintained in a humidified incubator at 37 °C and with 5% CO2.
(§3) Biological activity assays […]
Antiamastigote Assay (L. infantum)
Peritoneal macrophages (1 × 10^5/well) were added to a 16-well slide chambers (NUNC) and incubated with 5% CO2 at 37 °C. The cells were subsequently infected with L. infantum amastigotes (10:1 amastigotes/macrophage) for 24 h. Treatment of the cells with selected compounds (serially diluted 1.2 to 150 μM) was performed in a humidified incubator for 96 h at 37 °C and with 5% CO2. Untreated cells were used as a negative control and miltefosine was used as a standard drug. The treated cells were fixed on slides with methanol, stained with Giemsa and observed under a light microscope.13 The infection index was used in order to determine the half inhibitory concentration (IC50) (no. infected macrophages × no. amastigotes / total no. […]

[2] = Mammalian toxicity, MTT colorimetric; format: cell-based, murine; conditions: mouse
Experimental: as §1, with “bioactivity. […]” for “bioactivity.”
Murine conjunctive fibroblasts NCTC clone 929 (ATCC) were maintained in 10% foetal calf serum supplemented RPMI-1640 medium (pH 7.2) at 37 °C in a humidified incubator with 5% CO2. […]
as §3
NCTC cells (6 × 10^4/well) were added to a 96-well plate. Treatments of the cells with selected compounds (serially diluted 1.5 to 200 μM) was performed in a humidified incubator for 96 h at 37 °C and with 5% CO2.
The MTT colorimetric method was used to determine the 50% cytotoxic concentration (CC50) and the selectivity index (CC50 against NCTC cells/IC50 against amastigotes).15 […]
[…] At 6 h and 24 h post-treatment, a 1 mL aliquot was taken for imaging. The cell cycle experiment was preformed twice independently.
Generation of mNG::RAD51 tagged cell line
The single-stranded DNA-binding protein RAD51, associated with DNA Repair, LmxM.28.0550 was tagged with endogenous fluorescent protein mNeonGreen (mNG) at the N-terminus. […]
Primers for constructs and sgRNA were designed using LeishGEdit (http://www.leishGEdit.net).
PCR was at 94 °C for 5 min, followed by 35 cycles at 94 °C (15 sec), 65 °C (15 sec), 72 °C (2 min) then finally 72 °C (1 min).
PCR was at 94 °C for 30 sec, followed by 30 cycles at 94 °C (30 sec), 60 °C (30 sec), 72 °C (30 sec) then finally 72 °C (2 min). […] Combined PCR products were precipitated for 20 min with 10 μL 3M sodium acetate and 300 μL EtOH, pelleted at 14000 min-1 30 min, washed once with 70% EtOH, re-pelleted and resuspended in […]
Promastigotes (1 × 10^7 cells) were combined with PCR products and transfected using the Amaxa Nucleofector II.17 Electroporation was performed using 2 mm cuvettes on the X-100 program, followed by immediate suspension in pre-warmed M199 medium. Successful transfectants were selected with 20 μg mL-1 Puromycin 15 h after transfection, taking 4 days to reach stable growth in culture. mNG::RAD51 nuclear foci studies mNG::RAD51 promastigotes (5 × 10^6 cells mL-1) in 7 mL of M199 medium were treated with 7 μL o f compound (S)-9a or (S)-9b dissolved in DMSO giving a final concentration of 50 μM. Phleomycin was used as a positive control at a final concentration of 25 μg mL-1. At T = 0, 15, 30, 60 min, and 2, 6, 24 h post-treatment a 0.8 mL aliquot was taken for imaging.

**Q.** With `COc1cc2c(cc1OC)[C@@H](Cc1ccc(Oc3cc(C[C@H]4c5cc(OC)c(OC)cc5CCN4C)ccc3OC)cc1)N(C)CC2` [(S,R)-11, (−)-O,O′-dimethylgrisabine] as the compound, how does the IC50 [1] read?
**A.** 0.8 ± 0.01 µM

**Q.** What about the IC50 (L. infantum amastigotes) of the same compound?
**A.** > 150 µM

**Q.** And the CC50 at 96 h [2]?
**A.** 10.2 ± 1.4 µM

**Q.** For `COc1cc2c(cc1OC)[C@H](Cc1ccc(Br)cc1)N(C)CC2` [(S)-9a], which IC50 [1] is on record?
**A.** 18.4 ± 2.1 µM

**Q.** And the IC50 (L. infantum amastigotes)?
**A.** 13.3 ± 0.9 µM

**Q.** And the CC50 at 96 h [2]?
**A.** 42.5 ± 1.5 µM

**Q.** For `COc1cc2c(cc1OC)[C@H](Cc1ccc(OC)c(OCc3ccccc3)c1)N(C)CC2` [(S)-9b], which IC50 [1] is on record?
**A.** 8.6 ± 0.8 µM

**Q.** And the IC50 (L. infantum amastigotes)?
**A.** 26.7 ± 2 µM

**Q.** What about the CC50 at 96 h [2] of the same compound?
**A.** 47.1 ± 11.2 µM
